Results from PMC2694832, “Pharmacokinetics, tissue distribution and mass balance of radiolabeled dihydroartemisinin in male rats” (Malaria Journal, 2009).
Like-named read-outs stand apart in the source and are kept apart here.

Columns and labels:
[1] = rats; cited from earlier work
[2] = Mass balance and urinary/faecal elimination of [^14C] DHA; type: in vivo, rats; conditions: rats i.v.
Protocol: Metabolic cages were washed with a solution of 2% Count-off® (Perkin-Elmer Life and Analytical Sciences, Boston, Massachusetts, USA) and the volume was measured. Duplicate portions (0.1 ml urine; 1 ml cage rinse) of each sample were radio-assayed after the addition of scintillation cocktail. The weights of individual faecal samples were obtained and the samples were subsequently homogenized in four volumes of de-ionized water. Quadruplicate portions (1.0 ml) of each homogenate were decolourized with 30% hydrogen peroxide, and digested with Solvable® tissue solubilizer. After acidification with glacial acetic acid and addition of scintillation cocktail, samples were assayed for radioactivity. The samples were kept in at -20°C for two weeks prior to analysis.

[3] = Pharmacokinetic study of [^14C] DHA and unchanged DHA, single i.v. dose; type: in vivo, rats
Protocol: Traditional PK studies involve intermittent blood sampling and subsequent determination of drug concentrations in whole blood and plasma. The Culex automated blood sampler provides a way for blood withdrawal at preprogrammed intervals, which is more accurate and less labor intensive. Six rats in the PK group were implanted with a jugular vein catheter under an isofluorane anesthaesia. After the surgery, rats were allowed to recover for 96 hours with free access to food and water. The rats were dosed single i.v. at 3 mg/ml/kg with [^14C] DHA (20 μCi/kg), which was prepared as a 25% cremophore/0.9% saline solution, through the tail vein. […] PK evaluation of [^14C] DHA in plasma and whole blood, as well as unchanged DHA in plasma was conducted in individual rats.
Total radioactivity in the collected tissue samples were quantified in duplicate. Weighed tissue aliquots (~0.2 g) were digested overnight in 2 ml of Solvable® tissue solubilizer (Perkin-Elmer Life and Analytical Sciences, Boston, MA) at 50°C. Coloured samples were decolourized by adding a maximum of 0.2 ml of 30% H2O2 for 30–60 minutes. Scintillation cocktail (Hyonic Fluor; Perkin-Elmer Boston. Massachusetts, USA) was then added and radioactivity determined in a Perkin-Elmer Tri-Carb 3100 TR scintillation spectrophotometer (Packard Instrument Co., Downers Grove, Illinois, USA). Faeces and intestinal contents were thoroughly homogenized before taking aliquots. Plasma was also analysed using the HPLC-ECD system to measure the concentration of unchanged DHA, as described by Li et al.
The analysis of cold DHA in plasma was performed according to a previously described HPLC method with the following modifications: for simultaneous determination of artemisinin and DHA (artemisinin as an internal standard), the Agilent Eclipse XDB-C18 column 5 μm (4.6 × 150 mm) was used with an isocratic mobile phase consisting of 40% acetonitrile: 60% ESA Acid Metabolite A (70–4835) in the reductive mode (-400 mV) for the quantification of DHA. Validation and reproducibility were evaluated and a lower limit of quantitation (LLQ) of 2.31 ng/ml for DHA was determined. The inter- and intra-day coefficient of variation for accuracy and precision were all within ± 10%.
For pharmacokinetics, the concentration-time data of [^14C] DHA in plasma and whole blood collected during the 192 hour treatment period was fitted to a three-compartment open model using a nonlinear, extended least-square fitting procedure (WinNonlin 5.2, Pharsight Corporation, Cary, NC) using weighted (1/concentration) nonlinear regression. The area under the curve (AUC) was determined by the linear trapezoidal rule with extrapolation to infinity based on the concentration of the last time point divided by the terminal rate constant. Extrapolations to time zero were done using zero concentration for intravenous dosing and using C0 values determined from the three-compartment model equation at time zero by i.v. route. Mean clearance rate (CL) was determined by dividing the dose by the AUCinf for i.v. injection. Mean residence time (MRT) was determined by dividing the area under the first moment curve (AUMC) by the AUC. The volume of distribution at steady state (Vss) was calculated as the product of CL and MRT. The concentration-time data of unchanged DHA was fitted to a two-compartment open model. Statistical analysis was conducted with Microsoft Excel using a Student's t-test for dependent samples to compare means of paired and unpaired samples between two groups.

rat plasma proteins = assay: Protein binding of [^14C] DHA, equilibrium dialysis, rat plasma; type: in vitro ADME
Protocol: (§1) Human blood samples (five men and five women) were freshly obtained from subject volunteers at the Department of Clinical Trials, WRAIR. Rat samples were freshly collected from five male and five female rats. Equilibrium dialysis was performed using Teflon dialysis chambers and Diachema standard membranes as described by Li and Hümpel. The GD-4/90 Equilibrium Dialyzer (MM Developments, Ottawa) contained 20 micro-dialysis cells (2.0 ml/chamber). The molecular weight cutoff for dialysis membranes was 5000 D. Equilibrium was reached after four hours, when cells were rotated at 16 rpm and 37°C. Drugs were dissolved in plasma samples with various concentrations (0.15 – 57800 ng/ml) and all experiments were carried out for five hours.

human plasma proteins = assay: Protein binding of [^14C] DHA, equilibrium dialysis, human plasma; type: in vitro ADME; conditions: both sexes; undiluted human plasma, 0.15 to 57800 ng/ml, 37°C, five hours; read-out: plasma protein binding percentage
Protocol: as §1

[4] = unchanged DHA in plasma, rats single i.v. 3 mg/kg

## C[C@H]1[C@H](OC(=O)CCC(=O)O)O[C@@H]2O[C@@]3(C)CC[C@H]4[C@H](C)CC[C@@H]1[C@@]24OO3 [Artesunate]
[1]
  plasma half-life of unchanged AS, first phase: 8.4 min

## C[C@H]1[C@@H](O)O[C@@H]2O[C@@]3(C)CC[C@H]4[C@H](C)CC[C@@H]1[C@@]24OO3 [DHA, 10'dihydro-artemisinin]
[2]
  elimination via metabolism (hydrolysis and oxidation): 99%
  unchanged DHA eliminated by direct excretion from kidneys: < 1 % of dose
[3]; rat, iv, unchanged DHA in plasma, two-compartment, rats single i.v. 3 mg/kg
  AUC(0-inf): 933 ± 125 ng·h/mL
[3]; rat, iv, unchanged DHA in plasma, two-compartment, rats single i.v. 3 mg/kg, read-out: MRT
  MRT: 29.4 ± 7.2 min
[3]; rat, iv, unchanged DHA in plasma, two-compartment, rats single i.v. 3 mg/kg, read-out: Vss
  Vd: 1.66 ± 0.54 L/kg
[3]; rat, iv, unchanged DHA in plasma, rats i.v. 3 mg/kg
  AUC: 933 ng·h/mL
[3]; rat, iv, unchanged DHA in plasma, rats single i.v. 3 mg/kg, read-out: Tmax
  Tmax: 1.2 min
[3]; rat, plasma, iv, 3 mg/kg, unchanged DHA in plasma, two-compartment, rats single i.v. 3 mg/kg
  clearance: 55.8 mL/min/kg
[3]; rat, plasma, iv, 3 mg/kg, unchanged DHA in plasma, two-compartment, rats single i.v. 3 mg/kg, read-out: Cmax
  Cmax: 2000 ± 507 ng/mL
[3]; rat, plasma, iv, 3 mg/kg, unchanged DHA in plasma, two-compartment, rats single i.v. 3 mg/kg, read-out: t1/2 – alpha (converted)
  half-life: 15 ± 2.4 min
[3]; rat, plasma, iv, 3 mg/kg, unchanged DHA in plasma, two-compartment, rats single i.v. 3 mg/kg, read-out: t1/2 – beta (terminal) (converted)
  half-life: 61.8 ± 11.4 min
[3]; rat, plasma, iv, 3 mg/kg, unchanged DHA in plasma, rats single i.v. 3 mg/kg, read-out: Cmax at first peak
  Cmax: 2000 ± 507 ng/mL
[3]; rat, plasma, iv, 3 mg/kg, unchanged DHA in plasma, rats single i.v. 3 mg/kg, read-out: Cmax at second peak
  Cmax: 1640 ± 468 ng/mL
[3]; rats, plasma, urine and faeces, single i.v. 3 mg/20 μCi/kg
  duration of total radioactivity (long-lasting metabolites): > 192 h
[3]; rats, single i.v. 3 mg/kg
  time to complete elimination of unchanged DHA: ≤ 6 h
[3]; unchanged DHA in plasma, two-compartment, rats single i.v. 3 mg/kg, 3 mg/kg
  CL: 55.8337 ± 7.0562 mL/min/kg
[3]; unchanged DHA in plasma, rats i.v. 3 mg/kg
  time of second peak: 23 min
[3]; [4]
  time of first peak: 0.02 h
  time of second peak: 22.8 min
Rat plasma proteins; both sexes, undiluted rat plasma, 0.15 to 57800 ng/ml, 37°C, five hours, read-out: plasma protein binding percentage
  fraction unbound at 5 h: 0.18 to 0.24
Rat plasma proteins; rat plasma
  dependence of binding capacity on drug concentration: not significantly different
Human plasma proteins
  fraction unbound at 5 h: 0.18 to 0.24
